Data reported in US4880791A, “Combination product composed of xanthine derivatives and O-acetylsalicylic acid or its pharmacologically tolerated salts, and its use” (priority 1984, dated 1989).

How the values were obtained:
[1] = test system: laser-induced thrombosis in the arterioles and venules of the rat mesentery; experiment: laser-induced thrombosis in arterioles of the rat mesentery; type: in vivo, rat (female Sprague-Dawley); conditions: for Changes from controls, % / Changes from controls, absolute / Number of shots: single substance
Description: The evaluation was carried out by analysis by vital microscopy (Nature, 218 (1968) 887 and Haemostasis 13 (1983) 61 and IRCS Med. Sci. 12 (1984) 91).
The test substances were administered in 0.9% sodium chloride solution (which contained 1% carboxymethylcellulose (Serva, Heidelberg)) either orally, intraperitoneally or intravenously. Control animals were treated in the corresponding manner but without the test substances. The experimental animals used were male or female Sprague-Dawley or Wistar rats.
The animals which were to be investigated underwent s.c. premedication with 0.1 mg of atropine sulfate in solution and were anesthetized with 100 mg of ketamine hydrochloride and 4 mg of xylazine per kg of body weight i.p. The investigation made use of arterioles and venules of the mesentery, which was coated with degassed liquid paraffin, having a diameter of about 13 μm. The beam of a 4 W argon laser (supplied by Spectra Physics, Darmstadt) was introduced coaxially, by means of a beam adaptation and adjustment system (supplied by BTG, Munich), into the inverted optical path of a microscope (ICM 405, LD-Epipland 40/0.60; supplied by Zeiss, Oberkochen). The wavelength used was 514.5 nm, with an energy above the objective of 30.5 mW. The exposure time per single shot was 1/15 sec. All the measuring operations were recorded by video camera (Trinicon tube, Sony, Cologne) and stored in a recorder (Sony, U-matic 3/4"). The test substances were administered in various doses to the experimental animals, orally one hour, and on i.v. administration 10 min., before the start of the experiment, control animals receiving the same amount of placebo.
The number of shots needed to induce a defined thrombus is counted.
The results of the experiment were subjected to statistical analysis using the .chi.^2 test (L. Cavalli-Sforza, Biometrie (Biostatistics), Stuttgart, 1969, pages 49 et seq.). […]

[2] = test system: mucosa of the glandular stomach; experiment: test of gastric tolerance (ulcerogenic effect); type: in vivo, rat (male Sprague-Dawley); conditions: for Number of animals with ulcers: 10 animals
Description: 24 hours after the last medication, the stomach was cut open along the lesser curvature, cleaned under running water, and inspected for mucosal lesions. All lesions visible on macroscopic inspection of the mucosa of the glandular stomach were regarded as ulcers.

[3] = test system: erythrocyte filterability; experiment: erythrocyte filterability in adjuvant arthritis rats; type: in vivo, rat; conditions: oral 21 days
Description: (§1) The hemorheological, antithrombotic, antiaggregatory and antiinflammatory effects of the combinations according to the invention were investigated after oral administration for 21 days in the pathological model of adjuvant arthritis (induced with Mycobacterium butyricum) is the rat by the method of Clincal Hemorheology 3 (1983) 469-480, and were compared with those of the appropriate individual substances. Blood was taken from the thoracic aorta 1 hour after the last administration of substance. All the details of the determination of the hemorheological effect were as described in Clinical Hemorheology 4 (1984) 263-273. The erythocyte deformability was quantitatively determined in a filtrometer (Myrenne MF 4, Roetgen, Germany) by evaluation of the initial gradient of the flow curve.

[4] = test system: tendency to thrombosis in arthritic rat; experiment: laser-induced tendency to thrombosis in arthritic rats; type: in vivo; conditions: oral 21 days
Description: as §1
The antithrombotic effect was measured using the laser model as described above.

[5] = test system: induced platelet aggregation; experiment: collagen-induced platelet aggregation in arthritic rats; type: in vivo, rat; conditions: oral 21 days
Description: as §1
The measurements of platelet aggregation were carried out as described above in detail. However, instead of arachidonic acid 0.04 mg of collagen was used to induce platelet aggregation in 1 ml of platelet-rich plasma (PA II aggregometer from Myrenne, Roetgen).

[6] = test system: adjuvant arthritis (Mycobacterium butyricum) in the rat; experiment: antiinflammatory effect in adjuvant arthritis (paw edema, necrosis index); type: in vivo
Description: as §1
The antiflammatory effect was quantitatively measured, as quoted above, using the volume of the edema of the paw and using the standard necrosis index.

[7] = test system: rat aortas; conditions: treatment of the rats with acetylsalicylic acid; cited from earlier work
[8] = test system: human blood platelets; conditions: cited from earlier work
[9] = test system: cyclooxygenase; conditions: cited from earlier work
[10] = test system: vascular cyclooxygenase; conditions: cited from earlier work
[11] = customary doses; cited from earlier work
[12] = Table 1b, 1 mg/kg acetylsalicylic acid without pentoxifylline

With `CC(=O)Oc1ccccc1C(=O)O` [Acetylsalicylic acid, O-acetylsalicylic acid] the “Changes from controls, %” value ([1]; 1 mg/kg oral) was -13%, the “Changes from controls, absolute” value ([1]; 1 mg/kg oral) was -0,35 and the Number of shots ([1]; 1 mg/kg oral) was 1,88. The “Changes from controls, %” value ([1]; 5 mg/kg oral) was -18%, the “Changes from controls, absolute” value ([1]; 5 mg/kg oral) was -0,38 and the Number of shots ([1]; 5 mg/kg oral) was 1,79. For the same molecule, the “Changes from controls, %” value ([1]; 10 mg/kg oral) was 35%, the “Changes from controls, absolute” value ([1]; 10 mg/kg oral) was 0,75 and the Number of shots ([1]; 10 mg/kg oral) was 2,92. The “Changes from controls, %” value ([1]; 30 mg/kg oral) was 48%, the “Changes from controls, absolute” value ([1]; 30 mg/kg oral) was 1,04 and the Number of shots ([1]; 30 mg/kg oral) was 3,21. For the same molecule, the “% change from controls” value [1, 12] was -13%, the “-x (number of shots)” value [1, 12] was 1,90 and the “effect in laser-induced thrombosis” value ([1]; oral dose 10 mg/kg) was “significant effect”. The “effect in laser-induced thrombosis” value ([1]; single oral dose 5 mg/kg) was “not significant”, the “Number of animals with ulcers” value ([2]; acetylsalicylic acid 25 mg/kg oral) was 5 and the “Number of animals with ulcers” value ([2]; acetylsalicylic acid 50 mg/kg oral) was 7. For the same molecule, the “Number of animals with ulcers” value ([2]; acetylsalicylic acid 100 mg/kg oral) was 9, the “Number of animals with ulcers” value ([2]; acetylsalicylic acid 1,25 mg/kg oral) was 1 and the “Number of animals with ulcers” value ([2]; acetylsalicylic acid 12,50 mg/kg oral) was 2. The gastric ulcerogenicity ([2]; acetylsalicylic acid after pretreatment with pentoxifylline) was “unaffected by pretreatment with pentoxifylline”, the erythrocyte filterability ([3]; 10 mg, healthy = 100%, untreated arthritic 59%) was 63% and the erythrocyte filterability ([3]; 180 mg) was 68%. For the same molecule, the “erythrocyte filterability in arthritic rats (in words)” value [3] was “can be increased again”, the “tendency to thrombosis (number of shots)” value ([4]; 10 mg, healthy = 100%, untreated arthritic 46%) was 47% and the “tendency to thrombosis (number of shots)” value ([4]; 180 mg) was 91%. The induced platelet aggregation ([5]; 10 mg, untreated arthritic = 100%, healthy 0%) was 62%, the induced platelet aggregation ([5]; 180 mg) was 35% and the “Percentage improvement, necrosis index” value ([6]; 10 mg) was 8%. The “Percentage improvement, volume of paw edema, left paw” value ([6]; 10 mg) was 2%, the “Percentage improvement, volume of paw edema, right paw” value ([6]; 10 mg) was 3% and the “Percentage improvement, necrosis index” value ([6]; 180 mg) was 28%. For the same molecule, the “Percentage improvement, volume of paw edema, left paw” value ([6]; 180 mg) was 28%, the “Percentage improvement, volume of paw edema, right paw” value ([6]; 180 mg) was 26% and the “release of the substance having antiaggregatory activity stimulated by pentoxifylline” value [7] was “can be suppressed”. For the same molecule, the “aggregation of human blood platelets” value [8] was “inhibitor of the aggregation”, the “cyclooxygenase localized in the blood platelets” value [9] was “inhibits the enzyme cyclooxygenase” and the “inhibition of vascular cyclooxygenase” value [10] was “found only at higher doses”. For the same molecule, the undesired side effects [11] was “asthma, allergic urticaria, analgesic nephropathy and peptic ulcers”.
